Patent US20060134248A1, “Hop acids as a replacement for antibiotics in animal feed” (priority 2002, published 2006)
Marks after values point to notes of the source that are not given here.

Key:
Conditions in all cases: hop acids 2 ppm, monensin 6 ppm
Entodiniomorph spp = assay: In vitro microbe measurements: protozoa count, Entodiniomorph spp / Entodinia
Isotrichia = assay: In vitro microbe measurements: protozoa count, Isotrichia
total bacteria = assay: In vitro microbe measurements: bacterial purine (measurement of total bacteria); assay type: cell-based
Excerpt: Proprionate is largely responsible for animal growth. […] There appears to be no effect on alfalfa protozoa and alfalfa bacterial purine by the beta acids. Again, reduction in protozoa and bacteria levels means more food and energy for animal growth.

CC[C@@]1([C@@H]2O[C@@H]([C@H]3O[C@@](O)(CO)[C@H](C)C[C@@H]3C)C[C@@H]2C)CC[C@H]([C@]2(C)CC[C@]3(C[C@H](O)[C@@H](C)[C@@H]([C@@H](C)[C@@H](OC)[C@H](C)C(=O)O)O3)O2)O1 [monensin]
Protozoa, Entodinia (Entodiniomorph spp; alfalfa): 6^c × 10^3 no/mL | Protozoa, Entodinia (Entodiniomorph spp; barley): 38^b × 10^3 no/mL | Protozoa, Entodinia (Entodiniomorph spp; corn): 28^bc × 10^3 no/mL | Protozoa, Isotrichia (Isotrichia; alfalfa): 0^c × 10^3 no/mL | Protozoa, Isotricha (Isotrichia; barley): 0 × 10^3 no/mL | Protozoa, Isotricha (Isotrichia; corn): 0.7 × 10^3 no/mL | Bacterial purines (total bacteria; alfalfa): 2.6^c mg/tube | Protozoa and bacterial purines versus control, in words (total bacteria; alfalfa): most effectively eliminate | Bacterial purines (total bacteria; barley): 1.5^b mg/tube | Bacterial purines (total bacteria; corn): 1.4^a Mg/tube
